# Assay results published in patent publication US11718626B2, “Macrocyclic compounds for treatment of medical disorders” (Achillion Pharmaceuticals, Inc., priority 2017, dated 2023).
# Target: Human Factor D (purified from human serum) (Homo sapiens (Human), UniProt P00746)
# Test: Human Factor D Assay
# Assay type: biochemical
# Conditions: Human Factor D 80 nM, substrate Z-L-Lys-SBzl, assay of Example 2; read-out: IC50 (Stars)
# Procedure: The assay of Example 2 was used to determine the IC50's of the compounds. Other standard Factor D inhibition assays are also available.
# Human Factor D (purified from human serum, Complement Technology, Inc.) at 80 nM final concentration is incubated with test compound at various concentrations for 5 min at room temperature in 50 mM Tris, 1M NaCl, pH 7.5. A synthetic substrate Z-L-Lys-SBzl and DTNB (Ellman's reagent) are added to final concentrations of 100 μM each. Absorbance at 405 nm (A405) is recorded at 30 second intervals for 30 minutes using a microplate spectrophotometer. IC50 values are calculated by nonlinear regression of Complement Factor D reaction rates as a function of test compound concentration.
# Sequence of Human Factor D (purified from human serum) (P00746 26-253): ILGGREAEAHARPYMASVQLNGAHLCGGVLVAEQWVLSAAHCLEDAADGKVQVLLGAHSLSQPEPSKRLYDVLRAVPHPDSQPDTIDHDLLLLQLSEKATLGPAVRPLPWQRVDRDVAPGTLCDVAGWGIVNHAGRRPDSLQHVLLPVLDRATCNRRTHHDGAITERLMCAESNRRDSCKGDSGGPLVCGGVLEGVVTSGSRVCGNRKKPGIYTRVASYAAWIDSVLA
row,Molecule,IC50 [nM]
1,"(41R,43S,45R)-42-(2-(3-acetyl-5-(2-methylpyrimidin-5-yl)-1H-indazol-1-yl)acetyl)-16-bromo-6-methyl-7-thia-42,6-diaza-1(2,3)-pyridina-4(3,5)-bicyclo[3.1.0]hexanacycloundecaphan-10-en-3-one 7,7-dioxide [Compound T-17]",< 1000

# Same assay, conditions: Human Factor D 80 nM, substrate Z-L-Lys-SBzl; Table 6; read-out: IC50
row,IC50 [nM],Molecule
1,< 1000,"CC(=O)c1nn2c3c(cc(-c4cnc(C)cn4)cc13)CC=CCCCC(=O)NC[C@@]13C[C@@H](C(=O)Nc4nc(C(F)(F)F)ccc4C)N(C(=O)C2)[C@@H]1C3 [Compound T-219, (41R,43S,45R)-13-acetyl-N-(3-methyl-6-(trifluoromethyl)pyridin-2-yl)-15-(5-methylpyrazin-2-yl)-3,7-dioxo-11H-42,6-diaza-1(1,7)-indazola-4(2,5)-bicyclo[3.1.0]hexanacyclotridecaphan-11-ene-43-carboxamide]"
2,< 1000,"CC(=O)c1nn2c3c(cc(-c4cnc(C)nc4)cc13)CCCCCCC(=O)NC[C@@]13C[C@@H](C(=O)Nc4nc(Br)ccc4F)N(C(=O)C2)[C@@H]1C3 [Compound T-230, (41R,43S,45R)-13-acetyl-N-(6-bromo-3-fluoropyridin-2-yl)-15-(2-methylpyrimidin-5-yl)-3,7-dioxo-11H-42,6-diaza-1(1,7)-indazola-4(2,5)-bicyclo[3.1.0]hexanacyclotridecaphane-43-carboxamide]"
3,< 1000,"CC(=O)c1nn2c3c(cc(-c4cnc(C)nc4)cc13)CCCCCCC(=O)NC[C@@]13C[C@@H](C(=O)Nc4cc(Br)ccc4C4CC4)N(C(=O)C2)[C@@H]1C3 [Compound T-212, (41R,43S,45R)-13-acetyl-N-(6-bromo-3-cyclopropylpyridin-2-yl)-15-(2-methylpyrimidin-5-yl)-3,7-dioxo-11H-42,6-diaza-1(1,7)-indazola-4(2,5)-bicyclo[3.1.0]hexanacyclotridecaphane-43-carboxamide]"

# Same assay, conditions: Human Factor D 80 nM, substrate Z-L-Lys-SBzl; Table 6; read-out: IC50 (Stars)
row,IC50 [nM],Molecule
1,< 1000,"CC(=O)c1cn2c3c(cc(-c4cnc(C)nc4)cc13)CCCCCCC(=O)NC[C@@]13C[C@@H](C(=O)Nc4nc(C(F)(F)F)ccc4C)N(C(=O)C2)[C@@H]1C3 [Compound T-159, (41R,43S,45R)-13-acetyl-N-(3-methyl-6-(trifluoromethyl)pyridin-2-yl)-15-(2-methylpyrimidin-5-yl)-3,7-dioxo-11H-42,6-diaza-1(1,7)-indola-4(2,5)-bicyclo[3.1.0]hexanacyclotridecaphane-43-carboxamide]"
2,< 1000,"CC(=O)c1nn2c3c(cc(-c4cnc(C)nc4)cc13)CCCCCC(C)(C)C(=O)N(C)C[C@@]13C[C@@H](C(=O)Nc4nc(C(F)(F)F)ccc4C)N(C(=O)C2)[C@@H]1C3 [Compound T-186, (41R,43S,45R)-13-acetyl-6,8,8-trimethyl-N-(3-methyl-6-(trifluoromethyl)pyridin-2-yl)-15-(2-methylpyrimidin-5-yl)-3,7-dioxo-11H-42,6-diaza-1(1,7)-indazola-4(2,5)-bicyclo[3.1.0]hexanacyclotridecaphane-43-carboxamide]"
3,< 1000,"CC(=O)c1nn2c3c(nc(-c4cnc(C)nc4)cc13)CCCCCC(=O)NC[C@@]13C[C@@H](C(=O)Nc4nc(C(F)(F)F)ccc4C)N(C(=O)C2)[C@@H]1C3 [Compound T-124, (41R,43S,45R)-13-acetyl-N-(3-methyl-6-(trifluoromethyl)pyridin-2-yl)-15-(2-methylpyrimidin-5-yl)-3,7-dioxo-11H-42,6-diaza-1(1,7)-pyrazolo[3,4-c]pyridina-4(2,5)-bicyclo[3.1.0]hexanacyclododecaphane-43-carboxamide]"
4,< 1000,"CC(=O)c1nn2c3c(nc(-c4cnc(C)nc4)cc13)CCCCCCC(=O)NC[C@@]13C[C@@H](C(=O)Nc4nc(Br)ccc4C)N(C(=O)C2)[C@@H]1C3 [Compound T-166, (41R,43S,45R)-13-acetyl-N-(6-bromo-3-methylpyridin-2-yl)-15-(2-methylpyrimidin-5-yl)-3,7-dioxo-11H-42,6-diaza-1(1,7)-pyrazolo[3,4-c]pyridina-4(2,5)-bicyclo[3.1.0]hexanacyclotridecaphane-43-carboxamide]"
5,< 1000,"Cc1ncc(-c2cc3c(C#N)nn4c3c(n2)CCCC=CCOC[C@@]23C[C@@H](C(=O)Nc5nc(C(F)(F)F)ccc5C)N(C(=O)C4)[C@@H]2C3)cn1 [Compound T-154, (41R,43S,45S)-13-cyano-N-(3-methyl-6-(trifluoromethyl)pyridin-2-yl)-15-(2-methylpyrimidin-5-yl)-3-oxo-11H-6-oxa-42-aza-1(1,7)-pyrazolo[3,4-c]pyridina-4(2,5)-bicyclo[3.1.0]hexanacyclododecaphan-8-ene-43-carboxamide]"
